Values of other authors, collected in patent US20090061517A1, “Cell culture apparatus and methods of making and using same” (priority 2007, published 2009).

Conditions: in humans

| Compound | idiosyncratic hepatotoxicity / idiosyncratic adverse drug reactions |
| --- | --- |
| C[C@H]1COc2c(N3CCN(C)CC3)c(F)cc3c(=O)c(C(=O)O)cn1c23 [levofloxacin] | without liability for causing idiosyncratic adverse drug reactions |
| N[C@@H]1[C@H]2CN(c3nc4c(cc3F)c(=O)c(C(=O)O)cn4-c3ccc(F)cc3F)C[C@@H]12 [trovafloxacin] | linked to idiosyncratic hepatotoxicity in humans |
